# Where two headings read alike, the source gives them in different places.
# Tests used:
# [1] = tested on: membrane érythrocytaire; test: Membrane adsorption at haematocrit 45%; assay type: in vitro ADME
# Excerpt: (§1) Ces composés ont été également testés pour leur absorption membranaire et stabilité érythrocitaire et plasmatique.
# [2] = Stability in haemolysate; assay type: in vitro ADME; design: key: + : stable.; *a: * : stabilité dans le sérum frais à 37°C au bout de 24h : on ne retrouve que 8 à 12%, 78% et 65% de la quantité de départ dans le sérum respectivement pour (a), (b) et (c).; *b: * : stabilité dans le sérum frais à 37°C au bout de 24h : on ne retrouve que 8 à 12%, 78% et 65% de la quantité de départ dans le sérum respectivement pour (a), (b) et (c).; *c: * : stabilité dans le sérum frais à 37°C au bout de 24h : on ne retrouve que 8 à 12%, 78% et 65% de la quantité de départ dans le sérum respectivement pour (a), (b) et (c)
# Excerpt: as §1
# [3] = Stability in fresh serum; assay type: in vitro ADME; design: key to Stabilité dans sérum frais 4°C / Stabilité dans sérum frais 37°C: + : stable.; *a: * : stabilité dans le sérum frais à 37°C au bout de 24h : on ne retrouve que 8 à 12%, 78% et 65% de la quantité de départ dans le sérum respectivement pour (a), (b) et (c).; *b: * : stabilité dans le sérum frais à 37°C au bout de 24h : on ne retrouve que 8 à 12%, 78% et 65% de la quantité de départ dans le sérum respectivement pour (a), (b) et (c).; *c: * : stabilité dans le sérum frais à 37°C au bout de 24h : on ne retrouve que 8 à 12%, 78% et 65% de la quantité de départ dans le sérum respectivement pour (a), (b) et (c); conditions: for Stabilité dans sérum frais 37°C / remaining at 24 h: * = fraction of starting quantity found after 24h, 37°C; for remaining at 24 h: read-out: Stabilité dans sérum frais 37°C
# Excerpt: as §1
# [4] = tested on: GR chargés; test: Extracellular leak from loaded red blood cells, 24 h incubation; assay type: in vitro ADME
# Excerpt: as §1
# [5] = target: T1, sites opioides de type µ (Oryctolagus cuniculus, UniProt G1TAQ8); test: [3H]diprenorphine competition binding, crude membrane fraction of rabbit cerebellum; design: species or system lapin
# T1 construct: fraction membranaire brute obtenue à partir de tissu frais (cervelet de lapin, cervelet de cobaye); from tissue; host or cells: rabbit cerebellum (New Zealand rabbits), crude membrane fraction
# Experimental: (§2) Les animaux utilisés sont des lapins néo-zélandais d'environ 1500 g et des cobayes tricolores d'environ 300 g.
# (§3) La préparation utilisée est une fraction membranaire brute obtenue à partir de tissu frais (cervelet de lapin, cervelet de cobaye) par une méthode standard d'homogénéisation et de centrifugation différentielle. La suspension finale est en tampon tris-HCl (50 mM, pH 7,4) et contient environ 5 mg de protéine par ml.
# (§4) [15,16(n)-³H] diprenorphine à 25-30 CI/mmol (Amersham International plc, Amersham, Angleterre).
# (§5) Radioligand (0,3 pmol) de [³H] diprenorphine et fraction membranaire brute (0,25 mg de protéine) sont incubés pendant 1 heure à 25°C dans un volume final de 1,0 ml en tampon Tris-HCl (50 mM, pH 7,4) : • (i) en absence de toute drogue compétitrice , • (ii) en présence de 12 concentrations croissantes de la nouvelle drogue et, • (iii) en présence de 10 µmol/l de diprenorphine non radioactive.
# (§6) Le contenu de chaque tube est ensuite rapidement filtré (sous vide) sur disques de fibre de verre (Whatman GF/B) disposés sur un jeu de rampes de filtration Millipore modèle 1225. Les filtres sont rincés avec 2 x 3 ml de tampon froid (O-2°C) puis séchés sous une lampe IR pendant 15 minutes. La radioactivité de chaque filtre, dans 3 ml de cocktail Ready-sol MB (Beckman) est comptée avec un compteur à scintillation liquide Kontron modèle MR 300.
# (§7) A partir des paramètres mesurés, il est ensuite calculé les différentes constantes Kx pour les sites considérés.
# (§8) Ces valeurs ont été calculées à partir des valeurs mesurées des concentrations CI.50 de drogue inhibant de 50 % la liaison à l'équilibre de (3H) diprenorphine utilisée à la concentration fixe de 0,3 nM.
# [6] = target: T2, sites opioides de type k (Cavia porcellus, UniProt P41144); test: [3H]diprenorphine competition binding, crude membrane fraction of guinea pig cerebellum; design: species or system cobaye; conditions: guinea pig cerebellum membranes; for IC50: [3H]diprenorphine 0,3 nM, 1 h at 25°C, (n) in brackets, read-out: I50κ (concentration inhibitrice 50); for Ki: calculated from the measured CI.50, read-out: KIκ (constante de dissociation apparente du composé testé)
# T2 construct: fraction membranaire brute obtenue à partir de tissu frais (cervelet de lapin, cervelet de cobaye); from tissue; host or cells: guinea pig cerebellum (tricolour guinea pigs), crude membrane fraction
# Experimental: as §2, §3, §4, §5, §6, §7, §8
# [7] = [3H]diprenorphine 0,3 nM, rabbit cerebellum membranes, 1 h at 25°C, (n) in brackets, read-out: I50µ (concentration inhibitrice 50)
# [8] = calculated from the measured CI.50, rabbit cerebellum membranes, read-out: KIµ (constante de dissociation apparente du composé testé)
Structure (SMILES),Adsorption membranaire à Hte 45% [1] [%],Stabilité dans hémolysat 4°C [2],Stabilité dans hémolysat 37°C [2],Stabilité dans sérum frais 4°C [3],Stabilité dans sérum frais 37°C [3],GR chargés : Incubation 24h Fuite extra-cellulaire 4°C [4] [%],GR chargés : Incubation 24h Fuite extra-cellulaire 37°C [4] [%],"IC50 [5, 7] [nM]","Ki [5, 8] [nM]",affinité apparente pour les sites opioïdes µ ([5]; result in words),IC50 [6] [nM],Ki [6] [nM],remaining at 24 h [3] [%],IC50 [5] [nM],Ki [5] [nM]
C=CCN1CC[C@]23c4c5ccc(OP(=O)(O)O)c4O[C@H]2C(=O)CC[C@@]3(O)[C@H]1C5 [naloxone-3-phosphate],0,+,+,+,+,1,12,3.5 ± 0.3,0.9,activité légèrement plus élevée que la naloxone,,,,,
COP(=O)(O)Oc1ccc2c3c1O[C@H]1C(=O)CC[C@@]4(O)[C@@H](C2)N(CC2CC2)CC[C@]314 [naltrexone-3-phosphate(OMe)],10,+,+,+,+,5,40,130 ± 9,33,,270 ± 35,68,,,
C=CCN1CC[C@]23c4c5ccc(OP(=O)(O)OP(=O)(O)OP(=O)(O)O)c4O[C@H]2C(=O)CC[C@@]3(O)[C@H]1C5 [naloxone-3-triphopshate],22,+,+,+,,0,0,21 ± 2,5.2,,106 ± 15,27,78,,
O=C1CC[C@@]2(O)[C@H]3Cc4ccc(OS(=O)(=O)O)c5c4[C@@]2(CCN3CC2CC2)[C@H]1O5 [naltrexone-3-sulfate],,,,,,,,1540,385,,2200,550,,,
O=C1CC[C@@]2(O)[C@H]3Cc4ccc(OP(=O)(O)OP(=O)(O)OP(=O)(O)O)c5c4[C@@]2(CCN3CC2CC2)[C@H]1O5 [naltrexone-3-triphosphate],22,+,+,+,,0,0,5.2 ± 0.4,1.3,,15 ± 1.4,3.8,65,,
C=CCN1CC[C@]23c4c5ccc(OP(=O)(O)OC)c4O[C@H]2C(=O)CC[C@@]3(O)[C@H]1C5 [naloxone-3-phosphate(OMe)],10,+,+,+,+,6,40,1200,260,,,,,,
"O=C1CC[C@@]2(OS(=O)(=O)O)[C@H]3Cc4ccc(OS(=O)(=O)O)c5c4[C@@]2(CCN3CC2CC2)[C@H]1O5 [naltrexone-3,14-disulfate]",40,+,+,+,+,15,70,7850,1960,,39000,9700,,,
"C=CCN1CC[C@]23c4c5ccc(OS(=O)(=O)O)c4O[C@H]2C(=O)CC[C@@]3(OS(=O)(=O)O)[C@H]1C5 [naloxone-3,14-disulfate]",34,+,+,+,+,5,50,20800,5200,,> 100000,> 25000,,,
"O=C1CC[C@@]2(O)[C@H]3Cc4ccc(O)c5c4[C@@]2(CCN3CC2CC2)[C@H]1O5 [naltrexone, reference compound]",,,,,,,,,,,,,,1.2 ± 0.2,0.3
O=C1CC[C@@]2(O)[C@H]3Cc4ccc(OP(=O)(O)O)c5c4[C@@]2(CCN3CC2CC2)[C@H]1O5 [naltrexone-3-phosphate],22,+,+,+,,1,12,22 ± 2,5.6,,30 ± 3,7.5,8 to 12,,
C=CCN1CC[C@]23c4c5ccc(OS(=O)(=O)O)c4O[C@H]2C(=O)CC[C@@]3(O)[C@H]1C5 [naloxone-3-sulfate],,,,,,,,4300,1070,,,,,,
